Data on four compounds can be found in patent US12269902B2, “Peptide compounds and peptide conjugates for the treatment of cancer through receptor-mediated chemotherapy” (TRANSFERT PLUS, S.E.C., priority 2015, dated 2025).

SMILES strings stand for the structures. Non-standard residues stand in square brackets, D forms with d. Residues, ends and D or L forms follow the SMILES beside them. *: point of attachment. X3 = COc1cccc2c1C(=O)c1c(O)c3c(c(O)c1C2=O)C[C@@](O)(C(=O)COC(=O)CC(C)(C)CC(=O)*)C[C@@H]3O[C@H]1C[C@H](N)[C@H](O)[C@H](C)O1; X2 = COc1cc(/C=C/C(=O)CC(=O)/C=C/c2ccc(OC(=O)CC(C)(C)CC(=O)*)c(OC)c2)ccc1O; Nle = CCCC[C@H](N)C(=O)O

By IC50 is commonly meant the point on the concentration scale where inhibition reaches its midpoint. High values mean weaker potency in that assay, low ones greater potency in that assay.

For data set [1], the system named is A-375 skin cancer cells. The data set is described as follows: [3H]-Thymidine incorporation cell proliferation assay, A-375. It is filed as cell-based. How it is done: (§1) The effect of the Docetaxel-Katana peptide conjugate on various cell line proliferations was evaluated and compared to unconjugated Docetaxel (Table 4). IC50 values obtained for the Docetaxel-Katana peptide conjugate were very similar to those of Docetaxel in the cancer cells tested.
(§2) The phytochemical Curcumin, unconjugated and conjugated, was also tested on cancer cell proliferation (FIG. 28). Breast cancer cells (MDA-MB231) were incubated with increasing concentrations of KBC106 or curcumin. After 72 hrs, thymidine incorporation assay was performed to assess the anti-proliferative properties of both molecules. IC50 values were extracted from the anti-proliferative curves. […] Proliferation assay was also performed using different types of cancer cells (ovarian, breast, skin and colorectal cancer cells). IC50 values were calculated from the anti-proliferation curves. In all cases, the Curcumin conjugate (KBC106) had stronger anti-proliferative activity (9-100 fold) than unconjugated Curcumin, as shown in Table 6 below.
(§3) Cancer cells were cultured in 96-well white plates (Perkin Elmer). They were synchronized for 24 hours in serum-deprived medium. After incubation of cells with unconjugated drugs (docetaxel, cabazitaxel, doxorubicin) or with drug-Katana peptide conjugates for 2 or 3 days, all media was aspirated and cells were pulse-labeled for 4 hours at 37° C./[…]/5% CO2 with media containing 2.5 μCi/mL [methyl-3H] thymidine (Perkin Elmer). Cells were washed, fixed, and dried before addition of scintillation fluid (Microscint 0, Perkin Elmer). After 24 hours, cell-associated tritium was quantified by counting on a plate reader (TopCount, Perkin Elmer). Incorporated [3H] thymidine was plotted for each drug concentration.
In general terms: Incorporation of labelled thymidine or its analogues reports DNA synthesis.

The test system of data set [2] is MDA-MB-231 breast cancer cells. The data set is described as follows: cells. On the procedure:
Breast cancer cells (MDA-MB231) were incubated with increasing concentrations of KBC106 or curcumin. After 72 hrs, thymidine incorporation assay was performed to assess the anti-proliferative properties of both molecules. IC50 values were extracted from the anti-proliferative curves.
The phytochemical Curcumin, unconjugated and conjugated, was also tested on cancer cell proliferation (FIG. 28). Breast cancer cells (MDA-MB231) were incubated with increasing concentrations of KBC106 or curcumin. After 72 hrs, thymidine incorporation assay was performed to assess the anti-proliferative properties of both molecules. IC50 values were extracted from the anti-proliferative curves. […] Proliferation assay was also performed using different types of cancer cells (ovarian, breast, skin and colorectal cancer cells). IC50 values were calculated from the anti-proliferation curves.
as §3

For data set [3], the system named is SK-MEL-28 skin cancer cells. The data set is described as follows: [3H]-Thymidine incorporation cell proliferation assay, SK-MEL-28. It is filed as cell-based. How it is done: as §1, §2, §3
For data set [4], the system named is ES-2 ovarian cancer cells. As to the kind of experiment: [3H]-Thymidine incorporation cell proliferation assay, ES-2. Format: cell-based. The settings on record: ES-2 (Ovary). How it is done: as §1, §2, §3
For data set [5], the system named is ES-2 ovarian cancer cells. As to the kind of experiment: ES-2 ovarian subcutaneous tumors (Doxorubicin, KBB106). It is filed as in vivo, mice. The settings on record: Day 14 post-treatment; equivalent dose of Doxorubicin 6 mg/kg/week. On the procedure:
25A. Mice were implanted in the flank with ES-2 ovarian cancer cells. Tumor growth was measured using a caliper. When tumors reached a tumor volume of about 150 mm^3, mice were treated with Doxorubicin or KBB106 at an equivalent dose of Doxorubicin (6 mg/kg/week). 25B. […] 25C.
(§4) The effect of the conjugated and unconjugated Doxorubicin was also evaluated on ovarian subcutaneous tumors. Mice were implanted in the with ES-2 ovarian cancer cells. Tumor growth was measured using a caliper. When tumors reached a tumor volume of about 150 mm^3, mice were treated with Doxorubicin or Katana-Doxorubicin conjugate KBB106 at an equivalent dose of Doxorubicin (6 mg/kg/week).

Data set [6] has as its system SKOV3 ovarian cancer cells. The data set is described as follows: SKOV3 ovarian subcutaneous tumors (KBB106). The settings on record: KBB106 18 mg/kg/week. On the procedure:
26A. Mice were implanted in the flank with SKOV3 ovarian cancer cells. When tumors reached a volume of about 150 mm^3, mice were treated with KBB106 (18 mg/kg/week) as indicated by the arrows. […] 26B. Body weight of mice was monitored during the treatments.
as §4

Data set [7] concerns the target T1, sortilin (Homo sapiens, UniProt Q99523).
T1 construct: Ovarian cancer cells were transfected with sortilin siRNA (siSortilin) for 24 hrs and then incubated with KBB106; endogenous in cells
T1 sequence (Q99523 78-831): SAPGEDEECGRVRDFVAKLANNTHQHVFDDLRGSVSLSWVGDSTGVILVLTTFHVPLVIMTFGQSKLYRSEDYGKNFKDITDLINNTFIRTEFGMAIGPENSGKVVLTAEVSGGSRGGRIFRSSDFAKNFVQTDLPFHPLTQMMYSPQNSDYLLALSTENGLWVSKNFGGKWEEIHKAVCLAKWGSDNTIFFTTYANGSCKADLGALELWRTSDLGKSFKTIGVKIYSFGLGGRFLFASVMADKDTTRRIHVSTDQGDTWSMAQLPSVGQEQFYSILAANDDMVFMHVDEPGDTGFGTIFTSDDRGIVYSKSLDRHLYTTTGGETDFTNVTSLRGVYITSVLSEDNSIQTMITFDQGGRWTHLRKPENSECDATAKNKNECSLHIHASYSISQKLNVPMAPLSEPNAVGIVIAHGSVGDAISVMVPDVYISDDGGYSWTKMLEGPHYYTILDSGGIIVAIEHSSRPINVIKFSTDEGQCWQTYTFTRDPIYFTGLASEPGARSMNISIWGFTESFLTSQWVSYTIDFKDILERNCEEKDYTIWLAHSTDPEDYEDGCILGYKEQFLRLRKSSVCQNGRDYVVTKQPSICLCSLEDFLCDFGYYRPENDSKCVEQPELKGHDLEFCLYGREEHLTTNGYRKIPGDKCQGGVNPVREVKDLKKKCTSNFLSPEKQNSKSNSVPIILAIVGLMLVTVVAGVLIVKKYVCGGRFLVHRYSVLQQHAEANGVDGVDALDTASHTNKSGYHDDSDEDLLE
The data set is described as follows: Uptake of KBB106 in ovarian cancer cells with reduced sortilin expression. It is filed as cell-based. Conditions: ovarian cancer cells transfected with sortilin siRNA. How it is done: A. Ovarian cancer cells were transfected with sortilin siRNA (siSortilin) for 24 hrs and then incubated with KBB106. Accumulation of KBB106 was monitored by the released of fluorescent Doxorubicin as a function of time. B. Ovarian cancer cells were incubated with KBB106 in the presence or absence of sortilin ligand (Katana peptide, progranulin). KBB106 accumulation was estimated by the released of fluorescent Doxorubicin.
The uptake of the Katana conjugate is increased in cells expressing the sortilin receptor.

The subject of data set [8] is HT-29 colorectal cancer cells. The data set is described as follows: cells. Conditions: Table 6. Format: cell-based. How it is done:
as §2, §3

For data set [9], the system named is HCC-1569 breast cancer cells. As to the kind of experiment: cells. It is filed as cell-based. Conditions: HCC-1569 (HER2+; Herceptin resistant); Table 6. How it is done: as §2, §3
The test system of data set [10] is HCC-1954 breast cancer cells. The data set is described as follows: cells. Format: cell-based. The settings on record: HCC-1954 (HER2+; Lapatinib resistant); Table 6. How it is done:
as §2, §3

The mark [11] stands for this setting: Homo sapiens, A-375 (Skin), Table 4, 2 or 3 days.
[12] abbreviates: Homo sapiens, SK-MEL-28 (Skin), Table 4, 2 or 3 days.

In the case of `CO[C@H]1C(=O)[C@]2(C)[C@@H](OC)C[C@H]3OC[C@@]3(OC(C)=O)[C@H]2[C@H](OC(=O)c2ccccc2)[C@]2(O)C[C@H](OC(=O)[C@H](O)[C@@H](NC(=O)OC(C)(C)C)c3ccccc3)C(C)=C1C2(C)C` [Cabazitaxel, cabazitaxel], the half-inhibitory concentration (IC50) in [1] (setting [11]) stood at 0.34 nM; in data set [2] (Homo sapiens, MDA-MB-231) it was 0.44 nM; in data set [3] (setting [12]), 0.12 nM; in [4] (Table 4, 2 or 3 days), 0.66 nM.

Take `COc1cccc2c1C(=O)c1c(O)c3c(c(O)c1C2=O)C[C@@](O)(C(=O)CO)C[C@@H]3O[C@H]1C[C@H](N)[C@H](O)[C@H](C)O1` [Doxorubicin, doxorubicin]: the IC50 stood at 11.8 nM in data set [1] (setting [11]); 9.7 nM in data set [2] (Homo sapiens, MDA-MB-231); 79.3 nM in data set [3] (setting [12]); 73.5 nM in data set [4] (Table 4, 2 or 3 days). The “tumor volume decrease compared to the vehicle group” value in data set [5] was 43%.

As for `CCCC[C@H](NC(=O)[C@H](CC(N)=O)NC(=O)[C@H](CCCNC(=N)N)NC(=O)[C@@H](NC(=O)CNC(=O)[C@H](C)NC(=O)[C@H](CCCCNC(=O)CC(C)(C)CC(=O)OCC(=O)[C@]1(O)Cc2c(O)c3c(c(O)c2[C@@H](O[C@H]2C[C@H](N)[C@H](O)[C@H](C)O2)C1)C(=O)c1c(OC)cccc1C3=O)NC(=O)[C@H](C)NC(=O)[C@H](CCCNC(=N)N)NC(=O)[C@@H](NC(=O)CNC(C)=O)C(C)C)C(C)C)C(=O)N[C@@H](Cc1ccccc1)C(=O)N[C@@H](CCCCNC(=O)CC(C)(C)CC(=O)OCC(=O)[C@]1(O)Cc2c(O)c3c(c(O)c2[C@@H](O[C@H]2C[C@H](N)[C@H](O)[C@H](C)O2)C1)C(=O)c1c(OC)cccc1C3=O)C(=O)N[C@@H](CO)C(=O)N[C@@H](CCC(=O)O)C(=O)N[C@@H](CO)C(=O)N[C@@H](Cc1ccc(O)cc1)C(=O)O` [KBB-106, Acetyl-GVRAK(doxorubicin)AGVRN(Nle)FK(doxorubicin)SESY] (Ac-GVRAK(X3)AGVRN[Nle]FK(X3)SESY-OH; C-terminus assumed), in data set [6], the “effect on body weight” value was “little effect on the body weight” and the “progression of SKOV3 xenograft tumors” value is “significantly decreased compared to the control group”. In [7], the “uptake in cells where sortilin expression was reduced” value is on record as “reduced”. Also, the “tumor volume decrease compared to the vehicle group” value in data set [5] came out at 97%.

With `CCCC[C@H](NC(=O)[C@H](CC(N)=O)NC(=O)[C@H](CCCNC(=N)N)NC(=O)[C@@H](NC(=O)CNC(=O)[C@H](C)NC(=O)[C@H](CCCCNC(=O)CC(C)(C)CC(=O)Oc1ccc(/C=C/C(=O)CC(=O)/C=C/c2ccc(O)c(OC)c2)cc1OC)NC(=O)[C@H](C)NC(=O)[C@H](CCCNC(=N)N)NC(=O)[C@@H](NC(=O)CNC(C)=O)C(C)C)C(C)C)C(=O)N[C@@H](Cc1ccccc1)C(=O)N[C@@H](CCCCNC(=O)CC(C)(C)CC(=O)Oc1ccc(/C=C/C(=O)CC(=O)/C=C/c2ccc(O)c(OC)c2)cc1OC)C(=O)N[C@@H](CO)C(=O)N[C@@H](CCC(=O)O)C(=O)N[C@@H](CO)C(=O)N[C@@H](Cc1ccc(O)cc1)C(=O)O` [KBC106, Acetyl-GVRAK(curcumin)AGVRN(Nle)FK(curcumin)SESY] (Ac-GVRAK(X2)AGVRN[Nle]FK(X2)SESY-OH; C-terminus assumed), the IC50 is 326 nM in [1] (A-375, Table 6); 135 nM in [2] (MDA-MB231 (Triple negative), Table 6, 72 hrs); 3600 nM in [8]; 1010 nM in data set [9]; 1290 nM in data set [10]; 243 nM in data set [3] (SK-MEL-28, Table 6). In addition, in data set [4] (Table 6), the IC50 was 1520 nM.
